Activity calls are given as the source filed them.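 How the source made its calls: active means plate Z score at or below -3, or inhibition of at least 30% at 20 µM; inactive means the rest.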
Assay: compounds lowering EGFP fluorescence in F442A cells, dose response, counter-screen for p/CIP destabilizer project (AID 2005);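 further: cells express EGFP alone from a CMV promoter as a counter screen for p/CIP-EGFP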
Conditions: F442A EGFP cells, EGFP fluorescence, 16 h, stronger effect = higher value

| Compound | inhibition (EGFP decrease, at 10 µM) [%] | inhibition (at 20 µM) |
| --- | --- | --- |
| COc1ccccc1N1CCN(CC(O)COCc2cccs2)CC1 (stereo unspecified) | 16.3 | 8% (inactive) |
| CS(=O)(=O)N(CC(=O)N1CCN(Cc2ccc3c(c2)OCO3)CC1)c1ccc2c(c1)OCO2 | 15.1 | -15.1% (inactive) |
| C=CCN1C(=O)/C(=C2/Sc3ccccc3N2C)SC1=Nc1ccccc1C | 1.3 | 8.6% (inactive) |
| COc1ccccc1NC(=O)CSc1nncn1-c1cccnc1 | 4.7 | 8% (inactive) |
| CC(C)(C)c1cc(Cc2ccccc2)[nH]n1 | -3.7 | 35.1% |
| CC(C)CCN1C(=O)c2ccc(C(=O)NCC3CCCO3)cc2C1=O (stereo unspecified) | 8.4 | 3.8% (inactive) |
| CCCNC(=O)c1ccc2c(=O)c(O)c(-c3cccc(Br)c3)[nH]c2c1 | -14.1 | -14.4% (inactive) |
| C=CCCC(=O)N1CCCC(C(=O)c2cccc(OC)c2)C1 (stereo unspecified) | 20.8 | 2.3% (inactive) |
| CCOC(=O)c1oc2ccccc2c1N | 12.3 | 19.4% (inactive) |
| Cc1cc(CN(C)C(=O)c2ccc3nc(Cc4ccccc4F)oc3c2)on1 | 21.3 | 8.5% (inactive) |
| c1ccc(-c2cn3c(n2)CCc2ccc4cccnc4c2-3)cc1 | -17.2 | -5% (inactive) |
| COc1cc(C2NCCC(=O)C2(C)C)cc(OC)c1OC (stereo unspecified) | -1.8 | 21.4% (inactive) |
| COc1c[nH]n(C2CCCCC2)c(=O)c1=O | 6.1 | -8.9% (inactive) |
| Cc1cc(/N=C/N(C)C)on1 | 20.8 | -23.7% (inactive) |
| O=C(CSc1ccc(Cl)cc1)OCc1nnc(-c2ccccc2)o1 | 7.2 | 13.1% (inactive) |
| Cc1cc(C)n2nc(SCC(=O)c3ccccc3)nc2n1 | 23.7 | 31% |
| Cc1ccc2nc(-c3ccc(S(=O)(=O)N4CCOCC4)cc3)cn2c1 | 14.7 | 6.1% (inactive) |
| CCOC(=O)CSC1=Nc2ccccc2C2=NC(CC(=O)NCc3ccc4c(c3)OCO4)C(=O)N12 (stereo unspecified) | -26.1 | 3.9% (inactive) |
| Cn1c(SCc2ccc(C#N)cc2)nnc1-c1ccccc1 | 18.5 | -12.9% (inactive) |
| COc1ccccc1CNC(=O)CCCC(=O)n1ncc2cc(C)ccc21 | -25.7 | 20.2% (inactive) |
| CC(=O)CC(=O)NC(=NC1CCCCC1)Nc1nc(C)cc(C)n1 | 14.7 | 5.7% (inactive) |
| Cc1cc(N2C(=O)C(O)=C(C(=O)c3ccco3)C2c2ccc([N+](=O)[O-])cc2)no1 (stereo unspecified) | 39.5 | 4.5% (inactive) |
| CCCCN(CC)C(=O)c1cc2cc3ccc(OC)cc3nc2o1 | 23.8 | 25.6% (inactive) |
| CCOC(=O)N1CCC(NC(=O)Cn2nc(-c3ccccc3)ccc2=O)CC1 | 1.1 | 24.5% (inactive) |
| COc1cc(CNCCCO)ccc1OCC(=O)NC(C)(C)C | -2.3 | 22.9% (inactive) |
| Nc1ccc2nc(-c3ccc(-c4nc5ccc(N)cc5[nH]4)cc3)[nH]c2c1 | 15.4 | 25% (inactive) |

| Compound | inhibition (EGFP decrease, at 10 µM) [%] | inhibition (at 20 µM) |
| --- | --- | --- |
| C=CCc1cccc2cc(C(=O)NC)c(=O)oc12 | 12.9 | 30.8% |
| O=C(CNC(=O)c1ccco1)NCC(=O)OCc1ccc(Cl)cc1Cl | -15.3 | 6% (inactive) |
| Cc1ccc(-c2nc(-c3cccnc3)no2)c(C)c1 | 18.1 | 31.1% |
| CC(=O)c1ccc(OCc2cc(C(=O)NC3CCCCC3)no2)cc1 | 15.2 | 9.5% (inactive) |
| COc1ccc(OC)c(NS(=O)(=O)c2c(C(=O)N3CCCCCC3)c(C)n(C)c2C)c1 | 32.8 | 15.9% (inactive) |
| C[C@H](NC(=O)C1CCC(CNC(=O)[C@@H]2CCCN2C(=O)OC(C)(C)C)CC1)C(=O)O (stereo partly specified) | 26.7 | 20.8% (inactive) |
| COc1ccccc1CNS(=O)(=O)c1cccc(S(=O)(=O)N2CCOCC2)c1 | 3.3 | 4.8% (inactive) |
| COCCC(=O)N1CCC(Oc2ccc(C(=O)N3CCCCCCC3)cc2)CC1 | 1.3 | 14% (inactive) |
| CCCNC(=O)Cn1c(=O)oc2ccccc21 | -20.6 | 8.8% (inactive) |
| CCCC(C)C1(CC)C(=O)NC(=Nc2ccc(F)cc2)NC1=O (stereo unspecified) | 37.5 | 27.3% (inactive) |
| CC(C)c1ccc(/C=N/NC(=O)c2cccc(Cl)c2)cc1 | 16.9 | 44.6% |
| COc1ccc(CCNC(=O)c2ccncc2)cc1OC | -3.3 | 20.8% (inactive) |
| CCc1ccc(NC(=S)N2CCC(NC(=O)c3ccccc3OC)CC2)cc1 | -7.8 | 5.4% (inactive) |
| COc1ccc2c(C)cc3nncn3c2c1 | -2.7 | 14.7% (inactive) |
| CCC(C(=O)NC1CCCCCC1)n1nc(C)n2c(cc3occc32)c1=O (stereo unspecified) | 2.6 | 5.5% (inactive) |
| C=CCn1c(SCCN2C(=O)c3ccccc3C2=O)nc2scc(-c3ccccc3)c2c1=O | 30.3 | 0.6% (inactive) |
| COc1ccc(OC)c(Nc2ncnc3c2cnn3-c2ccccc2)c1 | 17.8 | 9.9% (inactive) |
| Cc1ccc(NC(=O)CC2C(=O)NC3CCCCC3N2C(=O)c2ccc(F)cc2)cc1C (stereo unspecified) | 12.9 | 24.7% (inactive) |
| O=C(Nc1cccc(-c2csc(Nc3ccc(Cl)cc3)n2)c1)c1cc([N+](=O)[O-])cc(C(F)(F)F)c1 | 32.2 | 21.2% (inactive) |
| CCOc1ccccc1N1CCN(C(=O)c2cc(-c3cc(OC)ccc3OC)nc3ccccc23)CC1 | 20.9 | 24.9% (inactive) |
| Cc1cc(C)cc(N2C(=O)N(c3ccccc3C)C3CS(=O)(=O)CC32)c1 (stereo unspecified) | 9.1 | 28.7% (inactive) |
| Nc1ncnc2c1ncn2[C@H]1C[C@H](O)[C@@H](CO)O1 | 1.2 | 26.2% (inactive) |
| COc1ccc(S(=O)(=O)N2c3ccccc3OCC2c2ccccc2)cc1 (stereo unspecified) | -12.8 | 1.8% (inactive) |
| O=C(COc1ccc(F)cc1)Nc1nc2c(s1)CCCC2 | 26.7 | 24% (inactive) |
| C[C@@H](C(=O)N1CCN(C(=O)OC(C)(C)C)CC1)n1cc(-c2cn([C@@H](C)C(=O)N3CCN(C(=O)OC(C)(C)C)CC3)nn2)nn1 | 38.2 | 25.3% (inactive) |
| CCCc1sc(N/N=C/c2ccccn2)nc1-c1ccc(F)cc1 | 20.3 | 20.4% (inactive) |

| Compound | inhibition (EGFP decrease, at 10 µM) [%] | inhibition (at 20 µM) |
| --- | --- | --- |
| CCCCN(Cc1ccccc1)S(=O)(=O)c1ccc2[nH]c(=O)oc2c1 | 7.9 | 11.8% (inactive) |
| Cc1noc(C)c1CSc1nnc(C)c(=O)[nH]1 | -9.8 | -3.4% (inactive) |
| O=CN1CCC(=O)N(Cc2ccccc2)c2ccccc21 | 33.4 | 23.1% (inactive) |
| CC(CCc1ccccc1)NC(=O)CNC(=O)COc1ccccc1 (stereo unspecified) | -4.8 | 28.2% (inactive) |
| O=C(O)[C@@H]1CCCN1c1ncnc2sc3c(c12)CCC3 | 0.9 | 31.1% |
| O=C(Nc1ccc(N2CCOCC2)cc1N1CCOCC1)c1ccc(Br)cc1 | 32.7 | 19.4% (inactive) |
| Cc1ccc(N2C(=O)N(CC(=O)Nc3ccc(C)cc3C)C(=O)C2C)cc1 (stereo unspecified) | 28.1 | 22% (inactive) |
| COc1ccc(S(=O)(=O)Nc2cccc(-n3cnnn3)c2)cc1OC | 6.4 | 6.9% (inactive) |
| CC(Oc1ccc(F)cc1)C(=O)/C=C\N(C)C (stereo unspecified) | 8.4 | 0% (inactive) |
| Cc1ccc(C2C(C#N)=C(N)Oc3cc4c(cc32)OCO4)cc1 (stereo unspecified) | 15.9 | 18.9% (inactive) |
| CCn1c(COc2ccc(=O)n(-c3ccccc3)n2)nnc1SCc1ccccc1C | 4.8 | 20.9% (inactive) |
| COc1ccccc1-c1cn[nH]c(=S)n1 | 24.4 | 8.7% (inactive) |
| Cc1cccc(-c2nnc3n2N=C(c2ccccc2Br)CS3)c1 | 18.2 | 10.8% (inactive) |
| CC(O)CNc1nc2c(c(=O)n(C)c(=O)n2C)n1Cc1cccc(Br)c1 (stereo unspecified) | 24.8 | 12.7% (inactive) |
| Cc1nnc(NC(=O)CSc2nccn2Cc2ccc(F)cc2)s1 | 22.4 | 16.3% (inactive) |
| CN(c1ccc(C(=O)Nc2ccccn2)cc1)S(=O)(=O)c1ccccc1 | 11.8 | 9% (inactive) |
| CCCCN(CCCC)CCCNC(=O)C12CN(Cc3ccccc3)CC1C(c1cccc([N+](=O)[O-])c1)=NO2 (stereo unspecified) | 20.1 | -9.9% (inactive) |
| COc1cccc2[nH]c(C(=O)NCCc3ccccc3)cc12 | 4.4 | 17.4% (inactive) |
| CCOC(=O)c1ccc(COC(=O)c2nonc2N)cc1 | 4.5 | 21.1% (inactive) |
| COc1cccc(-c2noc(-c3ccc(Cl)nc3)n2)c1 | -8.2 | -3.6% (inactive) |
| Cc1c(NC(=O)C(C)OC(=O)/C=C/c2ccco2)c(=O)n(-c2ccccc2)n1C (stereo unspecified) | 10.9 | -5.3% (inactive) |
| CCCC(=O)C1=C(N(C)c2ccccc2)CC(C)(C)CC1=O | 24.9 | 21.6% (inactive) |
| CCOCCCNC(=O)c1cc2c(=O)n3cccc(C)c3nc2s1 | -2.1 | 12.9% (inactive) |
| CCOc1ccc(N(CC(=O)N2CCOCC2)S(=O)(=O)c2ccc(Cl)cc2)cc1 | 12.8 | 14.1% (inactive) |
| CCOc1ccc(-c2c[n+]3c(n2-c2ccccc2)CCCCC3)cc1 | 32.2 | 51.3% |
| CCC1=C2CC[C@H]3C(=O)N(C)C(=O)[C@H]3[C@H]2[C@@]2(Cc3ccccc3)C(=NCCOC)OC(=O)N2C1=O | -6.2 | 13.4% (inactive) |
